What was measured:
Assay type in all cases: cell-based, Human
Ramos cells = assay: Apoptosis assay, AnnexinV-FITC/propidium iodide FCM; details: treatment for 18 hours
Protocol: Figure 1 The chemical structure of SKLB-850 and its anti-tumor effects in vitro (A) The chemical structure of SKLB-850. (B and C) Apoptosis of Ramos cells induced by SKLB-850. Cells were treated by vehicle, R788 or indicated concentrations of compounds. After 18 hours, Cell were harvested and stained with AnnexinV-FITC and propidium iodide, then the apoptosis cells were analyzed by FCM. (D and E) Apoptosis of HBL-1 cells induced by SKLB-850. Cells were treated by vehicle, R788 or indicated concentrations of compounds. After 24 hours, Cell were harvested and stained with AnnexinV-FITC and propidium iodide, then the apoptosis cells were analyzed by FCM. […] Columns, mean; bars, SD. ^##P<0.01, or ^#P<0.05, SKLB-850 group versus vehicle group. […]
The ability of SKLB-850 to induce apoptosis of BCL cells was analyzed by FCM. […]
Flow cytometry (FCM) assays were performed to investigate the apoptosis of Ramos and HBL-1 cells induced by SKLB-850. […] Cell apoptosis was analyzed with a flow cytometer (BD FACSCalibur, BD, USA).

[1] = test system: CCL3 secretion of Ramos cells; assay: ELISA of chemokine secretion after anti-IgM and anti-CD40 stimulation; details: anti-IgM and anti-CD40 induced, 0.1μM, 18 hours, n=3, stimulated without compound 3443.00 ± 134.80 pg/mL
Protocol: (§1) We then measured the concentrations of CCL3 and CCL4 in supernatant of Ramos cells cultured in medium, or medium supplemented with anti-IgM and anti-CD40 in the presence or absence of SKLB-850 after 18 hours. CCL3 and CCL4 are chemokines, which appear to correlate with the signaling capacity of the BCR [26]. As shown in Figure 3A and 3B, SKLB-850 inhibited the increased secretion of CCL3 and CCL4 stimulated by anti-IgM and anti-CD40. The mean CCL3 and CCL4 concentrations in supernatants of Ramos cells after anti-IgM and CD40 stimulation were 3443.00 ± 134.80 pg/mL and 134.80 ± 1.90 pg/mL, respectively.
(§2) To evaluate the effect of SKLB-850 on CCL3 and CCL4 secretion after stimulation of Ramos cells with anti-IgM (30 μg/ml) and anti-CD40 (10 μg/ml), chemokine levels were measured in supernatants of activated BCL cells, as previously described. After 18 hours of anti-IgM and anti-CD40 co-culture, supernatants were harvested and assayed for CCL3 and CCL4 by quantitative enzyme-linked immunosorbent assays according to the manufacturer’s instructions (Quantikine, R&D Systems, Minneapolis, MN, USA).

[2] = test system: CCL4 secretion of Ramos cells; assay: as above; details: anti-IgM and anti-CD40 induced, 0.1μM, 18 hours, n=3, stimulated without compound 134.80 ± 1.90 pg/mL
Protocol: as §1, §2

| Structure (SMILES) | percentages of apoptotic cells (in words) (Ramos cells) | CCL3 level in supernatant [1] | CCL4 level in supernatant [2] |
| --- | --- | --- | --- |
| COc1cc(Nc2ncc(F)c(Nc3ccc4c(n3)N(COP(=O)(O)O)C(=O)C(C)(C)O4)n2)cc(OC)c1OC [R788, reference compound] | induced apoptosis but obviously much weaker |  |  |
| CN1CCN(c2ccc(Nc3ncc(F)c(Nc4ccc(Cl)cc4C(N)=O)n3)cc2)CC1 [SKLB-850, 5-chloro-2-((5-fluoro-2-((4-(4-methylpiperazin-1-yl)phenyl)amino)pyrimidin-4-yl)amino) benzamide] | dose-dependently increased | 2303.10 ± 109.40 pg/mL | 15.20 ± 0.30 pg/mL |

— PMC5762338, “A novel orally available Syk/Src/Jak2 inhibitor, SKLB-850, showed potent anti-tumor activities in B cell lymphoma (BCL) models” (Oncotarget, 2017)
